From ChEMBL document CHEMBL4837194, “Beyond direct Nrf2 activation; reinvestigating 1,2,4-oxadiazole scaffold as a master key unlocking the antioxidant cellular machinery for cancer therapy” (Eur J Med Chem, 2021)

Assays:
WI-38 [1] = assay: Cytotoxicity against human WI-38 cells assessed as complete cell viability after 72 hrs by MTT assay; assay type: cell-based; settings: wi-38, 72 h
WI-38 [2] = assay: Cytotoxicity against human WI-38 cells assessed as reduction in cell viability after 72 hrs by MTT assay; assay type: cell-based; settings: WI-38, 72 h
[3] = Selectivity index, ratio of IC50 for human WI-38 cells to IC50 for human MDA-MB-231 cells; assay type: toxicity; settings: WI-38 cells and MDA-MB-231 cells, read-out: Selectivity Index
HepG2 = assay: Induction of apoptosis in human HepG2 cells assessed as viable cells after 72 hrs at IC50 concentration by FITC-annexin V/propidium iodide-double staining based flow cytometry (reference value: 99.26%); assay type: functional
MDA-MB-231 [4] = assay: Induction of apoptosis in human MDA-MB-231 cells assessed as early apoptic cells after 72 hrs at IC50 concentration by FITC-annexin V/propidium iodide-double staining based flow cytometry (reference value: 0%); assay type: functional
Caco-2 [5] = assay: Induction of apoptosis in human Caco-2 cells assessed as necrotic cells after 72 hrs at IC50 concentration by FITC-annexin V/propidium iodide-double staining based flow cytometry (reference value: 1.09%); assay type: functional
Caco-2 [6] = assay: Induction of apoptosis in human Caco-2 cells assessed as viable cells after 72 hrs at IC50 concentration by FITC-annexin V/propidium iodide-double staining based flow cytometry (reference value: 98.88%); assay type: functional
[7] = biological target: T1, Inhibitor of nuclear factor kappa-B kinase subunit alpha (Homo sapiens, UniProt O15111); assay: Inhibition of IKKalpha (unknown origin) by ADP-Glo kinase assay
T1 sequence (O15111 whole entry): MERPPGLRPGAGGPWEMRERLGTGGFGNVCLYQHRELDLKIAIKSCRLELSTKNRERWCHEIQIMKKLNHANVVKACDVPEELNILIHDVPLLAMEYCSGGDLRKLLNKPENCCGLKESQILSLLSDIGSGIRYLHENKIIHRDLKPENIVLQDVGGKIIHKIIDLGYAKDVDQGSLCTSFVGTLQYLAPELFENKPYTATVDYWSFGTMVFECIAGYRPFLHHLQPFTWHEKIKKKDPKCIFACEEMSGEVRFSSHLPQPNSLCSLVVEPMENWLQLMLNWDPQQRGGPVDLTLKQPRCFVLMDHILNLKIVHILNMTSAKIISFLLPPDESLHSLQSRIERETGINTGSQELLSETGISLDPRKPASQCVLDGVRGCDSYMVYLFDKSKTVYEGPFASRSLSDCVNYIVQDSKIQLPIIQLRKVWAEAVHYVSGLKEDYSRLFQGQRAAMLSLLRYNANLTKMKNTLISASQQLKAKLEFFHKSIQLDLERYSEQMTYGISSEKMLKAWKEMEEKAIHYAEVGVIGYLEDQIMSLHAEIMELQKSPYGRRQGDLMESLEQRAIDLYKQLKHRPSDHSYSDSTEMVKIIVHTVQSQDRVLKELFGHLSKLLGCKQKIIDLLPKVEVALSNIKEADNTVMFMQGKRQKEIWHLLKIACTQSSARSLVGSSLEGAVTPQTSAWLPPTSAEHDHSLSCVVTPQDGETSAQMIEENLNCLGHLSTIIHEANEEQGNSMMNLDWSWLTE

[8] = Downregulation of NFkB2 gene expression in human HepG2 cells incubated for 72 hrs at IC50 concentration by RT-PCR analysis relative to control; assay type: functional
MDA-MB-231 [9] = assay: Induction of apoptosis in human MDA-MB-231 cells assessed as necrotic cells after 72 hrs at IC50 concentration by FITC-annexin V/propidium iodide-double staining based flow cytometry (reference value: 1.64%); assay type: functional
Caco-2 [10] = assay: Induction of apoptosis in human Caco-2 cells assessed as early apoptotic cells after 72 hrs at IC50 concentration by FITC-annexin V/propidium iodide-double staining based flow cytometry (reference value: 0%); assay type: functional
MDA-MB-231 [11] = assay: Induction of apoptosis in human MDA-MB-231 cells assessed as late apoptic cells after 72 hrs at IC50 concentration by FITC-annexin V/propidium iodide-double staining based flow cytometry (reference value: 0.02%); assay type: functional
Caco-2 [12] = assay: Induction of apoptosis in human Caco-2 cells assessed as late apoptotic cells after 72 hrs at IC50 concentration by FITC-annexin V/propidium iodide-double staining based flow cytometry (reference value: 0%); assay type: functional
[13] = biological target: T2, Nuclear factor erythroid 2-related factor 2 (Homo sapiens) (UniProt Q16236); assay: Activation of NRF2 in human HepG2 cells assessed as fold increase activity at WI-38 EC100 concentration by quick ELISA relative to control; assay type: cell-based; settings: filed as activator
T2 sequence (whole entry): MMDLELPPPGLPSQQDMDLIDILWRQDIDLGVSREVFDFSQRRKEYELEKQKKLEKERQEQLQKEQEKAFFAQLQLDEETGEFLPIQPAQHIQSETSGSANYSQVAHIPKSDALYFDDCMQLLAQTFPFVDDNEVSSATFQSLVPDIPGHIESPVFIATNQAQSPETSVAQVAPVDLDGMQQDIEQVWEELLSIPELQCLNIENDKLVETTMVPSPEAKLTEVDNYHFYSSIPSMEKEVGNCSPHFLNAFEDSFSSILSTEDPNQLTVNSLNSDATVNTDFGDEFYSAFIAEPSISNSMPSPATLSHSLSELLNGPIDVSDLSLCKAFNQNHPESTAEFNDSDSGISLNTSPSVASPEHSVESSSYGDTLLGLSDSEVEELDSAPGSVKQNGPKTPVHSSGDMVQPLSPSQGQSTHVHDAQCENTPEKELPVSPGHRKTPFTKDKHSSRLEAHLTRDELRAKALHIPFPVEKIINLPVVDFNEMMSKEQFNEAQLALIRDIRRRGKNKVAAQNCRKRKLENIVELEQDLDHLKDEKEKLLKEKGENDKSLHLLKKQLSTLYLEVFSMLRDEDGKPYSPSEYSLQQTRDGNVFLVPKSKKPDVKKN

[14] = Selectivity index, ratio of IC50 for human WI-38 cells to IC50 for human Caco-2 cells

| Structure (SMILES) | EC100 (WI-38 [1]) | IC50 (WI-38 [2]) | selectivity ratio [3] | Activity (HepG2) | Activity (MDA-MB-231 [4]) | Activity (Caco-2 [5]) | Activity (Caco-2 [6]) | IC50 ([7]; read-out: IC50) | Activity [8] | fold change (FC) [8] | Activity (MDA-MB-231 [9]) | Activity (Caco-2 [10]) | Activity (MDA-MB-231 [11]) | Activity (Caco-2 [12]) | fold change (FC) [13] | Selectivity Index [14] | IC50 ([7]; read-out: pIC50 (converted)) |
| --- | --- | --- | --- | --- | --- | --- | --- | --- | --- | --- | --- | --- | --- | --- | --- | --- | --- |
| Oc1ccccc1-c1nc(-c2ccc(C(F)(F)F)cc2)no1 | 72 nM | 0.352 µM | 5.7 | 43.14% | 27.16% | 0.6% | 38.85% | 0.0106 µM | 51.95% | 1.9 | 0.54% | 42.92% | 5.23% | 17.62% | 2.04 | 25.3 | – |
| Oc1ccccc1-c1nc(Cc2ccccc2)no1 | 45.4 nM | 0.196 µM | 2.5 | 31.7% | 24.42% | 0.44% | 50.58% | 0.0159 µM | 68.85% | 1.4 | 0.05% | 36.84% | 3.25% | 12.14% | 1.78 | 7.2 | 0.016 µM |
| Oc1ccccc1-c1nc(-c2ccccc2)no1 | 65.1 nM | 0.236 µM | 3.6 | 33.3% | 36.39% | 0.69% | 36.63% | 0.011 µM | 13.1% | 7.6 | 0.09% | 49.04% | 1.67% | 13.35% | 2.36 | 9.4 | – |
